Assays:
[1] = Single-dose intravenous pharmacokinetics in mice; format: in vivo, mouse; conditions: for clearance: read-out: Cl_obs (converted); for Vd: read-out: V
Protocol: (§1) The in vivo pharmacokinetic profile of CEND-1 after a single dose was evaluated in four non-GLP animal studies including Sprague-Dawley rats, Beagle dogs, cynomolgus monkeys and BALB/c mice following the intravenous injection of CEND-1 at various doses (1, 5 and 50 mg/kg for rats, dogs and monkeys; 1.5, 4.5 and 13.5 mg/kg for mice) (Table 1). Blood samples were collected for pharmacokinetic evaluations pre-dose and at 1, 5, 10, 15 and 30 min, and 1, 2 and 6 h post-dose in rats, dogs and monkeys, and 3, 10, 30 and 90 min, and 4 and 8 h post-dose in mice.
(§2) Plasma CEND-1 was quantified by validated liquid chromatography coupled with a tandem mass spectrometry (LC/MS/MS) assay. Tolbutamide or leuprorelin acetate were used as internal standards. AB Sciex Triple Quad API 5500 (Sciex, Framingham, MA, USA), operated in the positive electrospray ionization (ESI) mode, was used to monitor the precursor to production ion transitions of m/z 495.4→69.9.
(§3) No formal sample size calculation was performed. Samples of 2–12 animals and 31 pancreatic cancer patients were considered acceptable to perform initial pharmacokinetic evaluations. The concentrations of CEND-1 were used to calculate PK parameters by employing a non-compartmental analysis (Phoenix^TM WinNonlin, version 6.1). The linear log trapezoidal algorithm, with a weighting of 1/Y*Y was used for parameter calculations. Mean PK parameters were calculated from individual animals in each treatment group. Concentrations below the LLOQ (if any) were excluded for the calculation of PK parameters. The mean values of PK parameters were calculated using Microsoft Excel version 2010.

[2] = Single-dose intravenous pharmacokinetics in rats; format: in vivo, rat; conditions: for Vd: read-out: V; for clearance: read-out: Cl_obs (converted)
Protocol: as §1, with “([…];” for “(1, 5 and 50 mg/kg for rats, dogs and monkeys;”
as §2, §3

[3] = Single-dose intravenous pharmacokinetics in dogs; format: in vivo, dog; conditions: for clearance: read-out: Cl_obs (converted); for Vd: read-out: V
Protocol: as §1, with “([…];” for “(1, 5 and 50 mg/kg for rats, dogs and monkeys;”
as §2, §3

[4] = Single-dose intravenous pharmacokinetics in cynomolgus monkeys; format: in vivo; conditions: cynomolgus monkey; for clearance: read-out: Cl_obs (converted); for Vd: read-out: V
Protocol: as §1, §2, §3

[5] = Detailed clinical and cage-side observations in pre-clinical species; format: in vivo, mice, rats, dogs and monkeys; conditions: any of the pre-clinical species tested, single IV dose
[6] = set-up: method as in PMID 35803294; conditions: phase I trial, monotherapy and in combination with chemotherapy drugs; cited from earlier work
[7] = male, BALB/c mouse, M, n=3, 1.5 mg/kg single IV, plasma LC/MS/MS, non-compartmental, one time point per animal
[8] = male, BALB/c mouse, M, n=3, 4.5 mg/kg single IV, plasma LC/MS/MS, non-compartmental, one time point per animal
[9] = male, BALB/c mouse, M, n=3, 13.5 mg/kg single IV, plasma LC/MS/MS, non-compartmental, one time point per animal
[10] = female, Sprague-Dawley rat, F, n=6, 1 mg/kg single IV, plasma LC/MS/MS, non-compartmental, one time point per animal
[11] = female, Sprague-Dawley rat, F, n=6, 5 mg/kg single IV, plasma LC/MS/MS, non-compartmental, one time point per animal
[12] = female, Sprague-Dawley rat, F, n=6, 75 mg/kg single IV, plasma LC/MS/MS, non-compartmental, one time point per animal
[13] = female, Sprague-Dawley rat, F, n=6, single IV, plasma LC/MS/MS, non-compartmental, one time point per animal
[14] = male, Sprague-Dawley rat, M, n=6, 1 mg/kg single IV, plasma LC/MS/MS, non-compartmental, one time point per animal
[15] = male, Sprague-Dawley rat, M, n=6, 5 mg/kg single IV, plasma LC/MS/MS, non-compartmental, one time point per animal
[16] = male, Sprague-Dawley rat, M, n=6, 75 mg/kg single IV, plasma LC/MS/MS, non-compartmental, one time point per animal
[17] = male, Sprague-Dawley rat, M, n=6, single IV, plasma LC/MS/MS, non-compartmental, one time point per animal
[18] = Beagle dog, F, n=3, 5 mg/kg single IV, plasma LC/MS/MS, non-compartmental, mean (SD)
[19] = Beagle dog, F, n=5, 75 mg/kg single IV, plasma LC/MS/MS, non-compartmental, mean (SD)
[20] = female, Beagle dog, F, n=3, 1 mg/kg single IV, plasma LC/MS/MS, non-compartmental, mean (SD)
[21] = female, Beagle dog, F, n=5, 75 mg/kg single IV, plasma LC/MS/MS, non-compartmental, mean (SD)
[22] = male, Beagle dog, M, n=3, 1 mg/kg single IV, plasma LC/MS/MS, non-compartmental, mean (SD)
[23] = male, Beagle dog, M, n=3, 5 mg/kg single IV, plasma LC/MS/MS, non-compartmental, mean (SD)
[24] = male, Beagle dog, M, n=5, 75 mg/kg single IV, plasma LC/MS/MS, non-compartmental, mean (SD)
[25] = male, M, n=3, 5 mg/kg single IV, plasma LC/MS/MS, non-compartmental, mean (SD)
[26] = male, M, n=3, 50 mg/kg single IV, plasma LC/MS/MS, non-compartmental, mean (SD)

half-life ([1]; BALB/c, mouse, plasma, iv, mice, single intravenous dose, read-out: average plasma half-life): ~25 min | C0 ([1]; BALB/c, plasma, iv, mouse, dose level of 4–5 mg/kg, read-out: Cmax (C0)): ~40000 ng/mL | half-life ([1]; male, BALB/c, mouse, plasma, iv, 1.5 mg/kg, BALB/c mouse, M, n=3, 1.5 mg/kg single IV, plasma LC/MS/MS, non-compartmental, one time point per animal, read-out: t1/2 (converted)): 18.4 min | half-life ([1]; male, BALB/c, mouse, plasma, iv, 4.5 mg/kg, BALB/c mouse, M, n=3, 4.5 mg/kg single IV, plasma LC/MS/MS, non-compartmental, one time point per animal, read-out: t1/2 (converted)): 20.6 min | half-life ([1]; male, BALB/c, mouse, plasma, iv, 13.5 mg/kg, BALB/c mouse, M, n=3, 13.5 mg/kg single IV, plasma LC/MS/MS, non-compartmental, one time point per animal, read-out: t1/2 (converted)): 32.8 min | AUC(0-inf) [1, 7]: 1480 ng·h/mL | C0 ([1]; male, BALB/c mouse, M, n=3, 1.5 mg/kg single IV, plasma LC/MS/MS, non-compartmental, one time point per animal, read-out: C0): 10300 ng/mL | clearance [1, 7]: 16.9 mL/min/kg | Vd [1, 7]: 0.449 L/kg | AUC(0-inf) [1, 8]: 3700 ng·h/mL | C0 ([1]; male, BALB/c mouse, M, n=3, 4.5 mg/kg single IV, plasma LC/MS/MS, non-compartmental, one time point per animal, read-out: C0): 40300 ng/mL | clearance [1, 8]: 20.1 mL/min/kg | Vd [1, 8]: 0.599 L/kg | AUC(0-inf) [1, 9]: 10600 ng·h/mL | C0 ([1]; male, BALB/c mouse, M, n=3, 13.5 mg/kg single IV, plasma LC/MS/MS, non-compartmental, one time point per animal, read-out: C0): 68400 ng/mL | clearance [1, 9]: 21.3 mL/min/kg | Vd [1, 9]: 1.01 L/kg | Cl_obs ([2]; Sprague-Dawley rat, F, n=6, 1 mg/kg single IV, plasma LC/MS/MS, non-compartmental, one time point per animal): 9.37 mL/min/kg | half-life ([2]; Sprague-Dawley, rat, plasma, rats, single intravenous dose, read-out: average half-life): ~30 min | AUC(0-inf) [2, 10]: 1750 ng·h/mL | C0 [2, 10]: 3980 ng/mL | Vd [2, 10]: 0.201 L/kg | half-life ([2]; female, Sprague-Dawley rat, F, n=6, 1 mg/kg single IV, plasma LC/MS/MS, non-compartmental, one time point per animal, read-out: t1/2 (converted)): 14.9 min | AUC(0-inf) [2, 11]: 9750 ng·h/mL | C0 [2, 11]: 28400 ng/mL | clearance [2, 11]: 8.55 mL/min/kg | Vd [2, 11]: 0.323 L/kg | half-life ([2]; female, Sprague-Dawley rat, F, n=6, 5 mg/kg single IV, plasma LC/MS/MS, non-compartmental, one time point per animal, read-out: t1/2 (converted)): 26.2 min | AUC(0-inf) [2, 12]: 166000 ng·h/mL | Vd [2, 12]: 0.254 L/kg | half-life ([2]; female, Sprague-Dawley rat, F, n=6, 75 mg/kg single IV, plasma LC/MS/MS, non-compartmental, one time point per animal, read-out: t1/2 (converted)): 23.5 min | C0 [2, 13]: 436000 ng/mL | clearance [2, 13]: 7.52 mL/min/kg | AUC(0-inf) [2, 14]: 1770 ng·h/mL | C0 [2, 14]: 4230 ng/mL | clearance [2, 14]: 9.3 mL/min/kg | Vd [2, 14]: 0.64 L/kg | half-life ([2]; male, Sprague-Dawley rat, M, n=6, 1 mg/kg single IV, plasma LC/MS/MS, non-compartmental, one time point per animal, read-out: t1/2 (converted)): 48.3 min | AUC(0-inf) [2, 15]: 9060 ng·h/mL | C0 [2, 15]: 24300 ng/mL | clearance [2, 15]: 9.2 mL/min/kg | Vd [2, 15]: 0.366 L/kg | half-life ([2]; male, Sprague-Dawley rat, M, n=6, 5 mg/kg single IV, plasma LC/MS/MS, non-compartmental, one time point per animal, read-out: t1/2 (converted)): 27.6 min | AUC(0-inf) [2, 16]: 215000 ng·h/mL | Vd [2, 16]: 0.171 L/kg | half-life ([2]; male, Sprague-Dawley rat, M, n=6, 75 mg/kg single IV, plasma LC/MS/MS, non-compartmental, one time point per animal, read-out: t1/2 (converted)): 20.5 min | C0 [2, 17]: 469000 ng/mL | clearance [2, 17]: 5.8 mL/min/kg | t1/2 ([3]; Beagle dog, F, n=3, 1 mg/kg single IV, plasma LC/MS/MS, non-compartmental, mean (SD)): 0.668 (0.0312) h | AUC(0-inf) [3, 18]: 20,443 (2530) h*ng/mL | Cl_obs [3, 18]: 247 (32.9) mL/hr/kg | V [3, 18]: 230 (14.6) mL/kg | t1/2 [3, 18]: 0.648 (0.0486) h | AUC(0-inf) [3, 19]: 323,936 (25,283) h*ng/mL | t1/2 [3, 19]: 0.620 (0.0439) h | half-life ([3]; Beagle, dog, plasma, dogs, single intravenous dose, read-out: average half-life): ~40 min | C0 [3, 20]: 4780 ng/mL | AUC(0-inf) ([3]; female, Beagle dog, F, n=3, 1 mg/kg single IV, plasma LC/MS/MS, non-compartmental, mean (SD), read-out: AUC0-inf): 3950 ng·h/mL | clearance [3, 20]: 4.25 mL/min/kg | Vd [3, 20]: 0.253 L/kg | C0 ([3]; female, Beagle dog, F, n=3, 5 mg/kg single IV, plasma LC/MS/MS, non-compartmental, mean (SD)): 25100 ng/mL | C0 [3, 21]: 476000 ng/mL | clearance [3, 21]: 3.88 mL/min/kg | Vd [3, 21]: 0.208 L/kg | C0 [3, 22]: 6010 ng/mL | AUC(0-inf) ([3]; male, Beagle dog, M, n=3, 1 mg/kg single IV, plasma LC/MS/MS, non-compartmental, mean (SD), read-out: AUC0-inf): 4030 ng·h/mL | clearance [3, 22]: 4.22 mL/min/kg | Vd [3, 22]: 0.241 L/kg | half-life ([3]; male, Beagle dog, M, n=3, 1 mg/kg single IV, plasma LC/MS/MS, non-compartmental, mean (SD), read-out: t1/2 (converted)): 39.9 min | C0 [3, 23]: 30200 ng/mL | AUC(0-inf) ([3]; male, Beagle dog, M, n=3, 5 mg/kg single IV, plasma LC/MS/MS, non-compartmental, mean (SD), read-out: AUC0-inf): 20600 ng·h/mL | clearance [3, 23]: 4.05 mL/min/kg | Vd [3, 23]: 0.23 L/kg | half-life ([3]; male, Beagle dog, M, n=3, 5 mg/kg single IV, plasma LC/MS/MS, non-compartmental, mean (SD), read-out: t1/2 (converted)): 39.3 min | C0 [3, 24]: 461000 ng/mL | AUC(0-inf) ([3]; male, Beagle dog, M, n=5, 75 mg/kg single IV, plasma LC/MS/MS, non-compartmental, mean (SD), read-out: AUC0-inf): 327000 ng·h/mL | clearance [3, 24]: 3.83 mL/min/kg | Vd [3, 24]: 0.204 L/kg | half-life ([3]; male, Beagle dog, M, n=5, 75 mg/kg single IV, plasma LC/MS/MS, non-compartmental, mean (SD), read-out: t1/2 (converted)): 36.9 min | half-life ([4]; plasma, male cynomolgus monkeys, IV 5 and 50 mg/kg, read-out: average half-life): ~55 min | AUC(0-inf) [4, 25]: 28200 ng·h/mL | C0 [4, 25]: 55100 ng/mL | clearance [4, 25]: 2.98 mL/min/kg | Vd [4, 25]: 0.204 L/kg | half-life ([4]; male, M, n=3, 5 mg/kg single IV, plasma LC/MS/MS, non-compartmental, mean (SD), read-out: t1/2 (converted)): 53.3 min | AUC(0-inf) [4, 26]: 421000 ng·h/mL | C0 [4, 26]: 602000 ng/mL | clearance [4, 26]: 2.97 mL/min/kg | Vd [4, 26]: 0.162 L/kg | half-life ([4]; male, M, n=3, 50 mg/kg single IV, plasma LC/MS/MS, non-compartmental, mean (SD), read-out: t1/2 (converted)): 57.4 min | detailed clinical observations and cage-side observations [5]: no test-article-related abnormalities
SMILES: CC(=O)N[C@H]1CSSC[C@@H](C(N)=O)NC(=O)[C@H](CC(=O)O)NC(=O)[C@@H]2CCCN2C(=O)CNC(=O)[C@H](CCCCN)NC(=O)[C@H](CC(=O)O)NC(=O)CNC(=O)[C@H](CCCNC(=N)N)NC1=O [CEND-1]
safety profile [6]: acceptable safety profile

From publication PMC10053770, “Assessment of the Pharmacokinetics, Disposition, and Duration of Action of the Tumour-Targeting Peptide CEND-1” (International Journal of Molecular Sciences, 2023)
